EC50 data for 23 compounds are collected here from patent publication US20220056043A1, “NITROGEN-CONTAINING FUSED CYCLIC COMPOUND, PREPARATION METHOD THEREFOR AND USE THEREOF” (SICHUAN KELUN-BIOTECH BIOPHARMACEUTICAL CO., LTD., priority 2019, published 2022).

Structures can show the parent of a compound that is named as a salt.

One test concerns the target T1, hTLR8 (Homo sapiens, UniProt Q9NR97).
T1 construct: host or cells: HEK-Blue hTLR8 cells
T1 sequence (Q9NR97 27-1041): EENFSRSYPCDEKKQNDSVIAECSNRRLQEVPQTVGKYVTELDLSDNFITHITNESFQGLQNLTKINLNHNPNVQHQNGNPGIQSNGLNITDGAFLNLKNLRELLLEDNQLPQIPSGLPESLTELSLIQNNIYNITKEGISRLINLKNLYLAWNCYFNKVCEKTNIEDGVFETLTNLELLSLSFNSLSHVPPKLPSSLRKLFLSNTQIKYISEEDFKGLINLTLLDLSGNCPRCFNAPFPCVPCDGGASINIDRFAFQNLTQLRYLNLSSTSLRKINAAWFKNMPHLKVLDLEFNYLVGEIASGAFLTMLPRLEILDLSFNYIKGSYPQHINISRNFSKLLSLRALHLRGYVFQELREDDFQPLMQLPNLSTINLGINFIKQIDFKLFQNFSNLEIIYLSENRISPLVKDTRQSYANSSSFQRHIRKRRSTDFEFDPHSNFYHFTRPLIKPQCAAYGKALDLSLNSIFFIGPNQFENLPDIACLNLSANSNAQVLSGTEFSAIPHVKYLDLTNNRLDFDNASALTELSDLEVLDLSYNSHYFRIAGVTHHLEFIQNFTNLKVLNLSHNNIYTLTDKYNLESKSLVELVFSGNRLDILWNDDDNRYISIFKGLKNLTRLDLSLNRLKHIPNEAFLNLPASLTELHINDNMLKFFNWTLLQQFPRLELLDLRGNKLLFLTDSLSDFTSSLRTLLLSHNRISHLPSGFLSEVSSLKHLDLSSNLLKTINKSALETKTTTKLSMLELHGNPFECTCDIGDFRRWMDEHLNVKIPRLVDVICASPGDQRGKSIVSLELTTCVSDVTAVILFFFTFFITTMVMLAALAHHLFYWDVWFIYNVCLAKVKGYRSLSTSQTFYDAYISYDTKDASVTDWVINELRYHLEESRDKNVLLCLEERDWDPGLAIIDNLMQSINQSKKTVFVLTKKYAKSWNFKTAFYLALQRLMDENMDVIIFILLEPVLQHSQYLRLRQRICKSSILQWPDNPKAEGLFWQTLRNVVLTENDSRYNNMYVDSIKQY
Briefly: Agonistic effect on hTLR8, HEK-Blue hTLR8 cells, alkaline phosphatase secretion. The class given is cell-based. Particulars: 16 hours. On the procedure: Experimental Example 4: Agonistic Effect of the Compound of the Invention on hTLR8
In this test, the secretion of alkaline phosphatase in HEK-Blue cells was measured to test the activating effect of the compound of the invention on TLR8 signaling pathway, so as to evaluate the specificity of the agonistic effect of the compound on NLRP3 pathway.
Reagents: DMEM (High glucose); FBS (fetal bovine serum) (Gibco); QUANTI-Blue/InvivoGen/rep-qb2
Cells: HEK-Blue™ hTLR8 cells (human TLR 8 cells) (InvivoGen) Experimental Procedures:
1) The HEK-Blue™ hTLR8 cells in a logarithmic growth phase were trypsinized and resuspended in the medium to a concentration of 2×10^6 cells/mL. 50 μL/well of the cell suspension was added to a 96-well plate. An appropriate amount of 10 mM DMSO solution of the compound to be tested was taken and diluted to a concentration of 2× test concentration with the medium. 50 μL/well was added to the cells in the 96-well plate. The plate was incubated in an incubator at 37° C. and 5% CO2 for 16 hours. The medium was DMEM (High glucose) containing 10% FBS. 2) After the cell incubation, 10 μL of cell culture supernatant was transferred to a 96-well plate. 90 μL/well of QUANTI-Blue detection solution was added, and the mixture was incubated at 37° C. for 3 hours. OD620 was read using a microplate reader.
3) The EC50 of the effect of the tested compound to stimulate hTLR8 was fitted by the GraphPad software log(agonist) vs. response—Variable slope four-parameter method.

In the next test the test system is THP1-defNLRP3 cells. Briefly: Agonistic effect on the expression of IL-1β in NLRP3 deficient THP1 cells (THP1-defNLRP3) after PMA-induced differentiation (HTRF). It counts as cell-based, human. Particulars: Homo sapiens, THP-1; IL-1β level, PMA-differentiated NLRP3 deficient THP1 cells, 6 hours; highest test concentration 30 μM; read-out: hNLRP3 EC50 (μM) (THP-1defNLRP3). The text has this: Experimental Example 2: Agonistic Effect of the Compound of the Invention on the Expression of IL-1β in NLRP3 Deficient THP1 Cells (THP1-defNLRP3 Cells) after PMA-Induced Differentiation
In this test, a HTRF detection method was used to test the effect of the compound of the invention on the level of IL-1β in THP1-defNLRP3 cells to evaluate the specificity of the agonistic effect of the compound on hNLRP3 inflammasome or hNLRP3 inflammasome pathway.
Reagents: as described in Experimental Example 1
Cell: THP1-defNLRP3 (InvivoGen)
Kit: IL-1β assay kit (CISBIO)
1) THP1-defNLRP3 cells in a logarithmic growth phase were seeded in a T75 culture flask at a density of 5×10^5 cells/well, and cultured in a cell incubator at 37° C., 5% CO2 for 24 hours, and then 1 μM PMA was used to induce THP1-defNLRP3 suspension cells to become adherent macrophages. The medium was RPMI 1640 containing 10% heat-inactivated FBS and 0.05 mM β-mercaptoethanol.
2) The cells were induced and cultured for 24 hours. Then the adherent cells were trypsinized and centrifuged at 1000 rpm for 5 min. The supernatant was removed, and the cells were resuspended to a density of 2×10^6 cells/mL in RPMI 1640 medium containing 2% heat-inactivated FBS. 50 μL/well of the cell resuspension was taken and spread on a 96-well plate such that the number of cells in each well was 1×10^5.
3) An appropriate amount of 10 mM DMSO solution of the compound to be tested was taken and diluted to a concentration of 2× test concentration with RPMI 1640 medium containing 2% heat-inactivated FBS. 50 μL/well of the dilution was added to the cells in the 96-well plate, and mixed well. The plate was incubated in a cell incubator at 37° C., 5% CO2 for 6 hours. The supernatant was collected, and the level of IL-1β was measured in accordance with the instructions of the IL-1β detection kit.
4) EC50 was fitted by the GraphPad software log(agonist) vs. response—Variable slope four-parameter method.

For the compound `Nc1cc(N[C@H]2CC[C@H](O)C2)c2sc(-c3ccn[nH]3)cc2n1` [Compound 26, (1S,3S)-3-((5-amino-2-(1H-pyrazol-5-yl)thieno[3,2-b]pyridin-7-yl)amino)cyclopentanol], the concentration for a half-maximal effect (EC50) at hTLR8 was more than 100 µM; in the test with THP1-defNLRP3 cells, more than 30 µM.

For `Nc1cc(N[C@@H]2CC[C@@H](O)C2)c2sc(-c3ccn[nH]3)cc2n1` [Compound 30s, (1R,3R)-3-((5-amino-2-(1H-pyrazol-5-yl)thieno[3,2-b]pyridin-7-yl)amino)cyclopentanol hydrochloride], the EC50 is more than 100 µM on hTLR8 and more than 30 µM in the test with THP1-defNLRP3 cells.

`Nc1cc(N[C@@H]2CC[C@H](O)C2)c2sc(-c3ccn[nH]3)cc2n1` [Compound 31, (1S,3R)-3-((5-amino-2-(1H-pyrazol-5-yl)thieno[3,2-b]pyridin-7-yl)amino)cyclopentanol]: the EC50 on hTLR8 is more than 100 µM; in the test on THP1-defNLRP3 cells it was more than 30 µM.

Turning to `C[C@H](O)CNc1cc(N)nc2cc(-c3ccn[nH]3)sc12` [Compound 33], the EC50 on hTLR8 is more than 100 µM; in the test with THP1-defNLRP3 cells it was more than 30 µM.

On to `Nc1cc(NC2CC(O)C2)c2sc(-c3ccn[nH]3)cc2n1` (stereo not shown) [Compound 40, 3-((5-amino-2-(1H-pyrazol-5-yl)thieno[3,2-b]pyridin-7-yl)amino)cyclobutanol], for which the EC50 was more than 100 µM on hTLR8 and more than 30 µM with THP1-defNLRP3 cells.

Regarding `CN1CC[C@H](Nc2cc(N)nc3cc(-c4ccn[nH]4)sc23)C1` [Compound 51, (S)—N^7-(1-methylpyrrolidin-3-yl)-2-(1H-pyrazol-5-yl)thieno[3,2-b]pyridine-5,7-diamine], the EC50 at hTLR8 is more than 100 µM; in the test with THP1-defNLRP3 cells, more than 30 µM.

With `CC(=O)NCCNc1cc(N)nc2cc(-c3ccn[nH]3)sc12` [Compound 52], the EC50 at hTLR8 was more than 100 µM; with THP1-defNLRP3 cells, more than 30 µM.

Turning to `CC(=O)NCCCNc1cc(N)nc2cc(-c3ccn[nH]3)sc12` [Compound 53], the EC50 on hTLR8 is more than 100 µM; with THP1-defNLRP3 cells, more than 30 µM.

With `CN1CCN(CCCNc2cc(N)nc3cc(-c4ccn[nH]4)sc23)CC1` [Compound 54, N^7-(3-(4-methylpiperazin-1-yl)propyl)-2-(1H-pyrazol-5-yl)thieno[3,2-b]pyridine-5,7-diamine], the values for the EC50 at hTLR8 and in the test with THP1-defNLRP3 cells were more than 100 µM and more than 30 µM, respectively.

Consider `Nc1cc(NCCN2CCOCC2)c2sc(-c3ccn[nH]3)cc2n1` [Compound 55, N^7-(2-morpholinoethyl)-2-(1H-pyrazol-5-yl)thieno[3,2-b]pyridine-5,7-diamine], for which the figures for the EC50 on hTLR8 and in the test on THP1-defNLRP3 cells were more than 100 µM and more than 30 µM, respectively.

For `CN1CCN(CCNc2cc(N)nc3cc(-c4ccn[nH]4)sc23)CC1` [Compound 57, N^7-(2-(4-methylpiperazin-1-yl)ethyl)-2-(1H-pyrazol-5-yl)thieno[3,2-b]pyridine-5,7-diamine], the EC50 on hTLR8 was more than 100 µM; in the test on THP1-defNLRP3 cells it was more than 30 µM.

`Nc1cc(NCCCNC(=O)C2CC2)c2sc(-c3ccn[nH]3)cc2n1` [Compound 58]: the EC50 on hTLR8 is more than 100 µM; in the test with THP1-defNLRP3 cells it was more than 30 µM.

For `Nc1cc(NCc2ccccn2)c2sc(-c3ccn[nH]3)cc2n1` [Compound 59, 2-(1H-pyrazol-5-yl)-N^7-(pyridin-2-ylmethyl)thieno[3,2-b]pyridine-5,7-diamine], the EC50 on hTLR8 is more than 100 µM; in the test on THP1-defNLRP3 cells, more than 30 µM.

Regarding `Cn1ccc(CNc2cc(N)nc3cc(-c4ccn[nH]4)sc23)n1` [Compound 60, N^7-(1-methyl-1H-pyrazol-3-yl)methyl-2-(1H-pyrazol-5-yl)thieno[3,2-b]pyridine-5,7-diamine], the EC50 on hTLR8 is more than 100 µM; in the test with THP1-defNLRP3 cells, more than 30 µM.

`Nc1cc(NC2CCOC2)c2sc(-c3ccn[nH]3)cc2n1` (stereo not shown) [Compound 61, 2-(1H-pyrazol-5-yl)-N^7-(tetrahydrofuran-3-yl)thieno[3,2-b]pyridine-5,7-diamine]: the EC50 on hTLR8 is more than 100 µM; in the test with THP1-defNLRP3 cells, more than 30 µM.

Regarding `CC1CN(CCNc2cc(N)nc3cc(-c4ccn[nH]4)sc23)CC(C)O1` (stereo not shown) [Compound 62], the figures for the EC50 on hTLR8 and with THP1-defNLRP3 cells were more than 100 µM and more than 30 µM, respectively.

Consider `Cn1cnc(CNc2cc(N)nc3cc(-c4ccn[nH]4)sc23)c1` [Compound 63, N^7-(1-methyl-1H-imidazol-4-yl)methyl-2-(1H-pyrazol-5-yl)thieno[3,2-b]pyridine-5,7-diamine], for which the EC50 on hTLR8 was more than 100 µM; with THP1-defNLRP3 cells, more than 30 µM.

As to `Nc1cc(NCCNC(=O)C2CC2)c2sc(-c3ccn[nH]3)cc2n1` [Compound 64], the results for the EC50 at hTLR8 and in the test with THP1-defNLRP3 cells were more than 100 µM and more than 30 µM, respectively.

With `CC(=O)N(C)CCNc1cc(N)nc2cc(-c3ccn[nH]3)sc12` [Compound 73, N-(2-((5-amino-2-(1H-pyrazol-5-yl)thieno[3,2-b]pyridin-7-yl)amino)ethyl)-N-methylethanamide], the EC50 at hTLR8 is more than 100 µM; in the test on THP1-defNLRP3 cells it was more than 30 µM.

In the case of `CC(=O)N(C)CCCNc1cc(N)nc2cc(-c3ccn[nH]3)sc12` [Compound 74, N-(3-((5-amino-2-(1H-pyrazol-5-yl)thieno[3,2-b]pyridin-7-yl)amino)propyl)-N-methylacetamide], the EC50 on hTLR8 is more than 100 µM; in the test with THP1-defNLRP3 cells, more than 30 µM.

Take `CN(CCNc1cc(N)nc2cc(-c3ccn[nH]3)sc12)C(=O)C1CC1` [Compound 75, N-(2-((5-amino-2-(1H-pyrazol-5-yl)thieno[3,2-b]pyridin-7-yl)amino)ethyl)-N-methylcyclopropionamide]: the EC50 at hTLR8 was more than 100 µM; in the test on THP1-defNLRP3 cells, more than 30 µM.

On to `CN(CCCNc1cc(N)nc2cc(-c3ccn[nH]3)sc12)C(=O)C1CC1` [Compound 76, N-(3-((5-amino-2-(1H-pyrazol-5-yl)thieno[3,2-b]pyridin-7-yl)amino)propyl)-N-methylcyclopropane formamide], for which the EC50 at hTLR8 is more than 100 µM; in the test on THP1-defNLRP3 cells, more than 30 µM.

As for `CCC(=O)N(C)CCNc1cc(N)nc2cc(-c3ccn[nH]3)sc12` [Compound 88, N-(2-((5-amino-2-(1H-pyrazol-5-yl)thieno[3,2-b]pyridin-7-yl)amino)ethyl)-N-methylpropionamide], the figures for the EC50 at hTLR8 and with THP1-defNLRP3 cells were more than 100 µM and more than 30 µM, respectively.
